Laboratory results reported in ChEMBL document CHEMBL1201862, “PubChem BioAssay data set” (2004).
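Where inhibition never reached the appropriate level, the endpoint shown equals the highest concentration tested. Otherwise, values were interpolated linearly from a five-concentration, 48-hour dose response in 96-well plates. GI50 marks 50% less growth.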 Calls of active or inactive are those of the source. No stated cut-off is given here; in the data, active = GI50 up to about 1.1 µM and inactive = higher.

Legend:
Assay in all cases: inhibition of tumour cell growth, NCI panel, 48 h
K562 = system: K562
KM12 = system: KM12
Malme-3M = system: Malme-3M
IGROV-1 = system: IGROV-1
UACC-62 = system: UACC-62
A498 = system: A498
OVCAR-4 = system: OVCAR-4
U-251 = system: U-251
ACHN = system: ACHN
NCI-H522 = system: NCI-H522
OVCAR-3 = system: OVCAR-3
NCI-H226 = system: NCI-H226
M14 = system: M14
786-0 = system: 786-0
SW-620 = system: SW-620
SNB-19 = system: SNB-19
RPMI-8226 = system: RPMI-8226

Compound | GI50 (K562) | GI50 (KM12) | GI50 (Malme-3M) | GI50 (IGROV-1) | GI50 (UACC-62) | GI50 (A498) | GI50 (OVCAR-4) | GI50 (U-251) | GI50 (ACHN) | GI50 (NCI-H522) | GI50 (OVCAR-3) | GI50 (NCI-H226) | GI50 (M14) | GI50 (786-0) | GI50 (SW-620) | GI50 (SNB-19) | GI50 (RPMI-8226)
COC1CC(OS(=O)(=O)c2ccc(C)cc2)C(OC(=O)c2ccccc2)C(C)O1 (configuration not stated) | > 10 µM (inactive) | > 10 µM (inactive) | > 10 µM (inactive) | > 10 µM (inactive) | > 100 µM (inactive) | > 10 µM (inactive) | > 10 µM (inactive) | > 10 µM (inactive) | > 10 µM (inactive) | > 10 µM (inactive) | > 10 µM (inactive) | > 10 µM (inactive) | > 10 µM (inactive) | > 10 µM (inactive) | > 10 µM (inactive) | > 10 µM (inactive) | > 100 µM (inactive)
CC1(C)CCc2cc3c(cc2O1)OCC1c2cc4c(cc2OC31)OCO4 (configuration not stated) | 71.1 µM (inactive) | > 100 µM (inactive) | 32.7 µM (inactive) | > 100 µM (inactive) | > 100 µM (inactive) | > 100 µM (inactive) | > 100 µM (inactive) | > 100 µM (inactive) | > 100 µM (inactive) | > 100 µM (inactive) | > 100 µM (inactive) | > 100 µM (inactive) | > 100 µM (inactive) | > 100 µM (inactive) | > 100 µM (inactive) | > 100 µM (inactive) | > 100 µM (inactive)
CCOC(=O)Cc1csc(Nc2ccc(OCC)cc2)n1 | 92.7 µM (inactive) | > 100 µM (inactive) | > 100 µM (inactive) | > 100 µM (inactive) |  | > 100 µM (inactive) | > 100 µM (inactive) | > 100 µM (inactive) | > 100 µM (inactive) | > 100 µM (inactive) | 86.3 µM (inactive) | > 100 µM (inactive) |  | > 100 µM (inactive) | > 100 µM (inactive) | > 100 µM (inactive) | > 100 µM (inactive)
Cc1cc2c3ccccc3n(C)c2c2c1C(=O)c1ccccc1C2=O | 20.4 µM (inactive) | 28.2 µM (inactive) | 18.2 µM (inactive) | 19.4 µM (inactive) | 20.8 µM (inactive) | 25.6 µM (inactive) | 17.8 µM (inactive) |  |  | 16.7 µM (inactive) | 13.4 µM (inactive) | 10.8 µM (inactive) | 19.1 µM (inactive) | 16.5 µM (inactive) | 25 µM (inactive) | 33.5 µM (inactive) | 6.3 µM (inactive)
COc1ccc(C2=C3c4cc(OC)c(OC)cc4CCN3C(=S)SS2)cc1OC | 71 µM (inactive) | 66.7 µM (inactive) | 24 µM (inactive) | > 100 µM (inactive) | 22 µM (inactive) | 46.6 µM (inactive) | 48.4 µM (inactive) | 61.1 µM (inactive) | 54.8 µM (inactive) | 50.1 µM (inactive) | > 100 µM (inactive) | > 100 µM (inactive) | 98.2 µM (inactive) | > 100 µM (inactive) | 95.9 µM (inactive) | 69 µM (inactive) | 63.2 µM (inactive)
COC(=O)C(C(=O)C(=O)Nc1c(Cl)cc([N+](=O)[O-])cc1Cl)c1nc2cc(C)c(C)cc2nc1O (configuration not stated) | > 100 µM (inactive) | > 100 µM (inactive) | > 100 µM (inactive) | > 100 µM (inactive) | 59.2 µM (inactive) | 44.9 µM (inactive) | > 100 µM (inactive) | > 100 µM (inactive) | > 100 µM (inactive) | > 100 µM (inactive) | > 100 µM (inactive) | > 100 µM (inactive) | > 100 µM (inactive) | > 100 µM (inactive) | > 100 µM (inactive) | > 100 µM (inactive) | > 100 µM (inactive)
O=C(NCCS(=O)(=O)N1C(=O)C2CCCN2C(=O)[C@@H]1Cc1ccccc1)OCc1ccccc1 (some centres not stated) | 47.9 µM (inactive) | 44.2 µM (inactive) | 74 µM (inactive) | 72.6 µM (inactive) | 40 µM (inactive) | 25.3 µM (inactive) | 36.7 µM (inactive) | 55.3 µM (inactive) | 35 µM (inactive) | 24.7 µM (inactive) | 33.5 µM (inactive) | 51.8 µM (inactive) | 36 µM (inactive) | 78.9 µM (inactive) | 90.4 µM (inactive) | 44.4 µM (inactive) | 23.3 µM (inactive)
CCc1cccc(CC)c1NC(=O)CC1SC(N)=NC1=O (configuration not stated) | > 100 µM (inactive) | > 100 µM (inactive) | > 100 µM (inactive) | > 100 µM (inactive) | > 100 µM (inactive) | > 100 µM (inactive) | > 100 µM (inactive) | > 100 µM (inactive) | > 100 µM (inactive) | > 100 µM (inactive) | > 100 µM (inactive) | > 100 µM (inactive) | > 100 µM (inactive) | > 100 µM (inactive) | > 100 µM (inactive) | > 100 µM (inactive) | > 100 µM (inactive)
C[C@H]1CCC2C(CN3CCCCC3)C(=O)OC2[C@]2(C)C(=O)CC(N3CCCCC3)C12O (some centres not stated) | 2.4 µM (inactive) | 3.09 µM (inactive) | 9.44 µM (inactive) | 18.8 µM (inactive) | 2.36 µM (inactive) | 4.12 µM (inactive) |  | 5.53 µM (inactive) | 2.8 µM (inactive) | 1.38 µM (inactive) | 4.48 µM (inactive) | 0.083 µM (active) |  | 4.54 µM (inactive) | 3.64 µM (inactive) | 20 µM (inactive) | 2.71 µM (inactive)
CCN1CCC(O)(c2ccc(OC)cc2)C(C(=O)c2ccc(OC)cc2)C1 (configuration not stated) | 26.1 µM (inactive) | 20.5 µM (inactive) |  | > 100 µM (inactive) | 16.9 µM (inactive) | > 10 µM (inactive) | 17.7 µM (inactive) | 16.7 µM (inactive) | 16.4 µM (inactive) | 1.97 µM (inactive) | 17.6 µM (inactive) | > 100 µM (inactive) | 15.7 µM (inactive) | 13.3 µM (inactive) | 10.8 µM (inactive) | 28.6 µM (inactive) | 4.25 µM (inactive)
C=C1C[C@]23CCC4C(C)(C)C(=O)CC[C@]4(C)C2C[C@H]1C(O)C3=O (some centres not stated) | > 75 µM (inactive) | > 75 µM (inactive) | > 75 µM (inactive) | > 75 µM (inactive) | > 75 µM (inactive) | > 75 µM (inactive) | > 75 µM (inactive) | > 75 µM (inactive) | > 75 µM (inactive) | > 75 µM (inactive) | > 75 µM (inactive) | > 75 µM (inactive) | > 75 µM (inactive) | > 75 µM (inactive) | > 75 µM (inactive) | > 75 µM (inactive) | > 75 µM (inactive)
CN(C)CCn1c2ccccc2c2nc3cc4ccccc4cc3nc21 | 2.92 µM (inactive) | 3.74 µM (inactive) | 10 µM (inactive) | 2.08 µM (inactive) | 9.14 µM (inactive) | 2.34 µM (inactive) | 7.91 µM (inactive) | 6.79 µM (inactive) | 2.48 µM (inactive) | 5.79 µM (inactive) | 10.6 µM (inactive) | 14 µM (inactive) | 4.1 µM (inactive) | 3.23 µM (inactive) | 3.48 µM (inactive) | 13.5 µM (inactive) | 2.91 µM (inactive)
